Assay results reported in patent US9187472B2 (AbbVie Inc., priority 2012, dated 2015).

System: PC3 cells
Test: NAMPT Cell Proliferation Assay
Type: cell-based
Details: Homo sapiens, PC-3, 120 h, 5 days incubation, cell viability by Cell Titer Glo
Summary of the method: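 Cell Titer Glo viability after 5-day exposure (37° C, 5% CO2); PC3, 500 cells/well, RPMI + 10% heat-inactivated FBS, overnight attachment before dosing. Dose range 10 μM to 1×10^−5 μM, 10-fold steps. IC50 = sigmoidal fit of % inhibition.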

| Compound | IC50 |
| --- | --- |
| CCC1CCCCN1C(=O)C(=O)N1CCC(c2ccc(C(=O)NCc3ccn4ccnc4c3)cc2)CC1 (stereo not drawn) [Example 1117, 4-{1-[(2-ethylpiperidin-1-yl)(oxo)acetyl]piperidin-4-yl}-N-(imidazo[1,2-a]pyridin-7-ylmethyl)benzamide] | 65.7 nM |
| Cn1cc2ccc(C(=O)N3CCC(c4ccc(C(=O)NCc5ccn6ccnc6c5)cc4)CC3)cc2n1 [Example 1118, N-(imidazo[1,2-a]pyridin-7-ylmethyl)-4-{1-[(2-methyl-2H-indazol-6-yl)carbonyl]piperidin-4-yl}benzamide] | 4.18 nM |
| Cn1ncc2c(C(=O)N3CCC(c4ccc(C(=O)NCc5ccn6ccnc6c5)cc4)CC3)cccc21 [Example 1119, N-(imidazo[1,2-a]pyridin-7-ylmethyl)-4-{1-[(1-methyl-1H-indazol-4-yl)carbonyl]piperidin-4-yl}benzamide] | 6.67 nM |
| O=C(NCc1ccn2ccnc2c1)c1ccc(C2CCN(C(=O)c3ccoc3C(F)(F)F)CC2)cc1 [Example 1120, N-(imidazo[1,2-a]pyridin-7-ylmethyl)-4-(1-{[2-(trifluoromethyl)furan-3-yl]carbonyl}piperidin-4-yl)benzamide] | 2.37 nM |
| O=C(NCc1ccn2ccnc2c1)Nc1ccc(C2CCN(C(=O)c3cnc(C4CC4)s3)CC2)cc1 [Example 1121, 1-(4-{1-[(2-cyclopropyl-1,3-thiazol-5-yl)carbonyl]piperidin-4-yl}phenyl)-3-(imidazo[1,2-a]pyridin-7-ylmethyl)urea] | 8.42 nM |
| O=C(NCc1ccn2ccnc2c1)Nc1ccc(C2CCN(C(=O)c3ccc4scnc4c3)CC2)cc1 [Example 1122, 1-{4-[1-(1,3-benzothiazol-5-ylcarbonyl)piperidin-4-yl]phenyl}-3-(imidazo[1,2-a]pyridin-7-ylmethyl)urea] | 9.96 nM |
| Cn1ncc2ccc(C(=O)N3CCC(c4ccc(NC(=O)NCc5ccn6ccnc6c5)cc4)CC3)cc21 [Example 1123, 1-(imidazo[1,2-a]pyridin-7-ylmethyl)-3-(4-{1-[(1-methyl-1H-indazol-6-yl)carbonyl]piperidin-4-yl}phenyl)urea] | 7.11 nM |
| Cc1nn(C)c(C(=O)N2CCC(c3ccc(NC(=O)NCc4ccn5ccnc5c4)cc3)CC2)c1Cl [Example 1124, 1-(4-{1-[(4-chloro-1,3-dimethyl-1H-pyrazol-5-yl)carbonyl]piperidin-4-yl}phenyl)-3-(imidazo[1,2-a]pyridin-7-ylmethyl)urea] | 0.344 nM |
| CCc1ccc(C(=O)N2CCC(c3ccc(NC(=O)NCc4ccn5ccnc5c4)cc3)CC2)nc1 [Example 1125, 1-(4-{1-[(5-ethylpyridin-2-yl)carbonyl]piperidin-4-yl}phenyl)-3-(imidazo[1,2-a]pyridin-7-ylmethyl)urea] | 4.77 nM |
| N#Cc1cnc(C(=O)N2CCC(c3ccc(NC(=O)NCc4ccn5ccnc5c4)cc3)CC2)c(Cl)c1 [Example 1126, 1-(4-{1-[(3-chloro-5-cyanopyridin-2-yl)carbonyl]piperidin-4-yl}phenyl)-3-(imidazo[1,2-a]pyridin-7-ylmethyl)urea] | 2.36 nM |
| CC1CC(C#N)(C(=O)N2CCC(c3ccc(NC(=O)NCc4ccn5ccnc5c4)cc3)CC2)C1 (stereo not drawn) [Example 1127, 1-(4-{1-[(1-cyano-3-methylcyclobutyl)carbonyl]piperidin-4-yl}phenyl)-3-(imidazo[1,2-a]pyridin-7-ylmethyl)urea] | 2.99 nM |
| CCc1c(C(=O)N2CCC(c3ccc(NC(=O)NCc4ccn5ccnc5c4)cc3)CC2)nnn1CC [Example 1128, 1-(4-{1-[(1,5-diethyl-1H-1,2,3-triazol-4-yl)carbonyl]piperidin-4-yl}phenyl)-3-(imidazo[1,2-a]pyridin-7-ylmethyl)urea] | 6.05 nM |
| O=C(NCc1ccn2ccnc2c1)Nc1ccc(C2CCN(C(=O)c3cc4occc4s3)CC2)cc1 [Example 1129, 1-(imidazo[1,2-a]pyridin-7-ylmethyl)-3-{4-[1-(thieno[3,2-b]furan-5-ylcarbonyl)piperidin-4-yl]phenyl}urea] | 8.05 nM |
| COc1csc(C(=O)N2CCC(c3ccc(NC(=O)NCc4ccn5ccnc5c4)cc3)CC2)c1 [Example 1130, 1-(imidazo[1,2-a]pyridin-7-ylmethyl)-3-(4-{1-[(4-methoxythiophen-2-yl)carbonyl]piperidin-4-yl}phenyl)urea] | 2.96 nM |

The next lines start with the values.

| IC50 | Compound |
| --- | --- |
| 34.4 nM | N#Cc1ccc(C(=O)N2CCC(c3ccc(NC(=O)NCc4ccn5ccnc5c4)cc3)CC2)s1 [Example 1131, 1-(4-{1-[(5-cyanothiophen-2-yl)carbonyl]piperidin-4-yl}phenyl)-3-(imidazo[1,2-a]pyridin-7-ylmethyl)urea] |
| 8.96 nM | O=C(NCc1ccn2ccnc2c1)Nc1ccc(C2CCN(C(=O)c3ccc(C4CC4)cn3)CC2)cc1 [Example 1132, 1-(4-{1-[(5-cyclopropylpyridin-2-yl)carbonyl]piperidin-4-yl}phenyl)-3-(imidazo[1,2-a]pyridin-7-ylmethyl)urea] |
| 1 nM | N#Cc1cc(F)c(C(=O)N2CCC(c3ccc(NC(=O)NCc4ccn5ccnc5c4)cc3)CC2)c(F)c1 [Example 1133, 1-{4-[1-(4-cyano-2,6-difluorobenzoyl)piperidin-4-yl]phenyl}-3-(imidazo[1,2-a]pyridin-7-ylmethyl)urea] |
| 5.51 nM | CCn1cc(C(=O)N2CCC(c3ccc(NC(=O)NCc4ccn5ccnc5c4)cc3)CC2)c(C(C)C)n1 [Example 1134, 1-[4-(1-{[1-ethyl-3-(propan-2-yl)-1H-pyrazol-4-yl]carbonyl}piperidin-4-yl)phenyl]-3-(imidazo[1,2-a]pyridin-7-ylmethyl)urea] |
| 4.23 nM | O=C(NCc1ccn2ccnc2c1)Nc1ccc(C2CCN(C(=O)c3coc4ccccc34)CC2)cc1 [Example 1135, 1-{4-[1-(1-benzofuran-3-ylcarbonyl)piperidin-4-yl]phenyl}-3-(imidazo[1,2-a]pyridin-7-ylmethyl)urea] |
| 3.02 nM | COc1cc(C(=O)N2CCC(c3ccc(NC(=O)NCc4ccn5ccnc5c4)cc3)CC2)ncc1C [Example 1136, 1-(imidazo[1,2-a]pyridin-7-ylmethyl)-3-(4-{1-[(4-methoxy-5-methylpyridin-2-yl)carbonyl]piperidin-4-yl}phenyl)urea] |
| 0.277 nM | O=C(NCc1ccn2ccnc2c1)Nc1ccc(C2CCN(C(=O)c3ccnn3C3CCCC3)CC2)cc1 [Example 1137, 1-(4-{1-[(1-cyclopentyl-1H-pyrazol-5-yl)carbonyl]piperidin-4-yl}phenyl)-3-(imidazo[1,2-a]pyridin-7-ylmethyl)urea] |
| 3.85 nM | O=C(NCc1ccn2ccnc2c1)Nc1ccc(C2CCN(C(=O)c3scnc3Cl)CC2)cc1 [Example 1138, 1-(4-{1-[(4-chloro-1,3-thiazol-5-yl)carbonyl]piperidin-4-yl}phenyl)-3-(imidazo[1,2-a]pyridin-7-ylmethyl)urea] |
| 1.41 nM | N#Cc1ccsc1C(=O)N1CCC(c2ccc(NC(=O)NCc3ccn4ccnc4c3)cc2)CC1 [Example 1139, 1-(4-{1-[(3-cyanothiophen-2-yl)carbonyl]piperidin-4-yl}phenyl)-3-(imidazo[1,2-a]pyridin-7-ylmethyl)urea] |
| 5.84 nM | CC(C)c1ncncc1C(=O)N1CCC(c2ccc(NC(=O)NCc3ccn4ccnc4c3)cc2)CC1 [Example 1140, 1-(imidazo[1,2-a]pyridin-7-ylmethyl)-3-[4-(1-{[4-(propan-2-yl)pyrimidin-5-yl]carbonyl}piperidin-4-yl)phenyl]urea] |
| 2.2 nM | CCCc1c(C(=O)N2CCC(c3ccc(NC(=O)NCc4ccn5ccnc5c4)cc3)CC2)cnn1C [Example 1141, 1-(imidazo[1,2-a]pyridin-7-ylmethyl)-3-(4-{1-[(1-methyl-5-propyl-1H-pyrazol-4-yl)carbonyl]piperidin-4-yl}phenyl)urea] |
| 2.9 nM | CC(C(=O)N1CCC(c2ccc(NC(=O)NCc3ccn4ccnc4c3)cc2)CC1)n1ccc(C2CC2)n1 (stereo not drawn) [Example 1142, 1-(4-{1-[2-(3-cyclopropyl-1H-pyrazol-1-yl)propanoyl]piperidin-4-yl}phenyl)-3-(imidazo[1,2-a]pyridin-7-ylmethyl)urea] |
| 17.4 nM | O=C(NCc1ccn2ccnc2c1)Nc1ccc(C2CCN(C(=O)c3cc4ccccn4n3)CC2)cc1 [Example 1143, 1-(imidazo[1,2-a]pyridin-7-ylmethyl)-3-{4-[1-(pyrazolo[1,5-a]pyridin-2-ylcarbonyl)piperidin-4-yl]phenyl}urea] |
| 9.6 nM | O=C(NCc1ccn2ccnc2c1)Nc1ccc(C2CCN(C(=O)c3ccc4occc4c3)CC2)cc1 [Example 1144, 1-{4-[1-(1-benzofuran-5-ylcarbonyl)piperidin-4-yl]phenyl}-3-(imidazo[1,2-a]pyridin-7-ylmethyl)urea] |
| 7.04 nM | CC(C)c1nc(C(=O)N2CCC(c3ccc(NC(=O)NCc4ccn5ccnc5c4)cc3)CC2)co1 [Example 1145, 1-(imidazo[1,2-a]pyridin-7-ylmethyl)-3-[4-(1-{[2-(propan-2-yl)-1,3-oxazol-4-yl]carbonyl}piperidin-4-yl)phenyl]urea] |
| 1.88 nM | Cn1ncc2cccc(C(=O)N3CCC(c4ccc(NC(=O)NCc5ccn6ccnc6c5)cc4)CC3)c21 [Example 1146, 1-(imidazo[1,2-a]pyridin-7-ylmethyl)-3-(4-{1-[(1-methyl-1H-indazol-7-yl)carbonyl]piperidin-4-yl}phenyl)urea] |
| 2.83 nM | COc1ncc(C)cc1C(=O)N1CCC(c2ccc(NC(=O)NCc3ccn4ccnc4c3)cc2)CC1 [Example 1147, 1-(imidazo[1,2-a]pyridin-7-ylmethyl)-3-(4-{1-[(2-methoxy-5-methylpyridin-3-yl)carbonyl]piperidin-4-yl}phenyl)urea] |
| 2.72 nM | COc1ccc(C(=O)N2CCC(c3ccc(NC(=O)NCc4ccn5ccnc5c4)cc3)CC2)nc1OC [Example 1148, 1-(4-{1-[(5,6-dimethoxypyridin-2-yl)carbonyl]piperidin-4-yl}phenyl)-3-(imidazo[1,2-a]pyridin-7-ylmethyl)urea] |
| 2.62 nM | Cn1cc2c(C(=O)N3CCC(c4ccc(NC(=O)NCc5ccn6ccnc6c5)cc4)CC3)cccc2n1 [Example 1149, 1-(imidazo[1,2-a]pyridin-7-ylmethyl)-3-(4-{1-[(2-methyl-2H-indazol-4-yl)carbonyl]piperidin-4-yl}phenyl)urea] |
